This is an account of results in US12527884B2, “Use of cyclodextrins as a radiostabilizer” (GE Healthcare Limited, priority 2019, dated 2026).

The structures appear in SMILES notation.

The nature of data set [1]: Radiochemical purity (RCP) and [18F]fluoride of formulated [18F]flurpiridaz during storage (radio TLC or HPLC). It counts as physicochemical. The method, then:
Radiochemical purity (RCP) is determined using radio TLC or HPLC and can be defined as the ratio of the (radio-labelled) drug substance peak to the total (radio-labelled) peaks in the chromatogram. If one manufactures a radiopharmaceutical with high radioactive concentration (RAC), the drop in RCP during storage is likely to be higher than at lower RAC due to more radiolysis. High radioactivity results in the drug substance destroying itself (i.e. radiolysis). The most efficient stabilizer can be identified by preparing different formulations of radiopharmaceuticals at similar RAC and comparing the drop in RCP over time, typically 8-10 hours for ^18F compounds.
The first 45 mL product vial was composed of water (42 mL), ethanol (3 mL), calcium disodium edetate (0.25 mg/mL), ascorbic acid (50 mg/mL) and sodium hydroxide (7.5 mg/mL). […]

The nature of data set [2]: Aqueous solubility of flurpiridaz with HPbCD. It counts as physicochemical.

With `CC(C)(C)n1ncc(OCc2ccc(COCCF)cc2)c(Cl)c1=O` [[^18F]flurpiridaz, flurpiridaz], the radiostability entry in data set [1] (30 mg/mL ascorbic acid and 40 mg/mL HPbCD vs 50 mg/mL ascorbic acid without HPbCD) was “equal or better”. In addition, the “change in RCP over 4 to 10 h (FIG. 2)” value in data set [1] (30 to 50 mg/mL ascorbic acid (pH ~6), with or without 40-47 mg/mL HPbCD, ca. 7% (v/v) ethanol, 0-21% (v/v) oxygen headspace) is reported as “reduction”. Moreover, in data set [2], the aqueous solubility entry is “improves”.
